Measured values from US20080090805A1, “CB-1 MODULATING COMPOUNDS AND THEIR USE” (ACADIA PHARMACEUTICALS INC., priority 2005, published 2008).

Test system: not listed separately
Assay: Clearance study, liver microsomes (rats)
Details: rat, pH 7.4

microsomal CLint at 1 μM | Structure (SMILES)
48 µL/min/mg | O=C(NCc1cccc(Cl)c1)c1ccc2c(c1)N=C(c1ccc(Cl)cc1)c1cc(F)ccc1S2 [drawing 1686]
90 µL/min/mg | O=C(NC1CCCCC1)c1ccc2c(c1)N=C(c1cccc(F)c1)c1ccccc1S2 [drawing 1757]
493 µL/min/mg | O=C(NCc1ccc(F)cc1)c1ccc2c(c1)N=C(C1CCCCC1)c1ccccc1S2 [drawing 1775]
43 µL/min/mg | O=C(NC1CCCCC1)c1ccc2c(c1)N=C(c1ccc(Cl)cc1)c1ccccc1S2 [drawing 1712]
80 µL/min/mg | O=C(NCc1cccnc1)c1ccc2c(c1)N=C(c1ccc(Cl)cc1)c1ccccc1S2 [drawing 1756]
75 µL/min/mg | O=C(NCc1ccco1)c1ccc2c(c1)N=C(c1ccc(Cl)cc1)c1ccccc1S2 [drawing 1803]
85 µL/min/mg | O=C(NCc1ccccc1)c1ccc2c(c1)N=C(c1cccc(Cl)c1)c1ccccc1S2 [drawing 1767]
162 µL/min/mg | O=C(NN1CCCCCC1)c1ccc2c(c1)N=C(c1cccc(Cl)c1)c1ccccc1S2 [drawing 1689]
358 µL/min/mg | Cc1ccsc1C1=Nc2cc(C(=O)NN3CCCCCC3)ccc2Sc2ccccc21 [drawing 1706]
299 µL/min/mg | CCCCNC(=O)c1ccc2c(c1)N=C(c1ccc(Br)cn1)c1ccccc1S2 [drawing 1654]
48 µL/min/mg | O=C(NCc1ccccc1Cl)c1ccc2c(c1)N=C(c1cccc(Cl)c1)c1ccccc1S2 [drawing 1674]

Target: human CB1 receptor (Homo sapiens, UniProt P21554)
Sequence (P21554 whole entry): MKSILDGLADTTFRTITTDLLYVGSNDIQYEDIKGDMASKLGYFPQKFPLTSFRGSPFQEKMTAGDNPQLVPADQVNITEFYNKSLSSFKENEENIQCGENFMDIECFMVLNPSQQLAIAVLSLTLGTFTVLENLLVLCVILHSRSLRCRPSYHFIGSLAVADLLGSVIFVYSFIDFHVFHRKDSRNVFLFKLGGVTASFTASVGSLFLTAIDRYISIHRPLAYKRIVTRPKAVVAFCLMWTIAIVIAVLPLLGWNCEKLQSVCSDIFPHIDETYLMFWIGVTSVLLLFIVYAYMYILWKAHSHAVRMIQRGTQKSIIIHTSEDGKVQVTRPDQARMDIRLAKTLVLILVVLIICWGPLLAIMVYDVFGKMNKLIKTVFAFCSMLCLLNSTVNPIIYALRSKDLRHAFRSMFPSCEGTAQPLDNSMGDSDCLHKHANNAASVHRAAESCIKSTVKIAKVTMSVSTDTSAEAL
Assay: CB1 receptor human binding assay ([3H]SR141716A, transfected HEK-293 T membranes)
Details: human CB1, HEK-293 T membranes

Binding Human Inh % | Structure (SMILES)
89% | CC(C)CNC(=O)c1ccc2c(c1)N=C(c1ccccn1)c1ccccc1S2 [drawing 1217]
94% | CCCCNC(=O)c1ccc2c(c1)N=C(c1ccc(Cl)cc1)c1ccc(F)cc1S2 [drawing 1184]
90% | CCCCNC(=O)c1ccc2c(c1)N=C(c1ccc(Cl)s1)c1ccccc1S2 [drawing 1191]
76% | O=C(NCc1cccs1)c1ccc2c(c1)N=C(c1ccc(F)cc1)c1ccccc1S2 [drawing 1178]
93% | CC(C)CNC(=O)c1ccc2c(c1)N=C(c1ccc(Cl)cc1)c1ccc(F)cc1S2 [drawing 1177]
96% | O=C(NN1CCCCCC1)c1ccc2c(c1)N=C(c1ccc(Cl)s1)c1ccccc1S2 [drawing 1208]
87% | O=C(NCCCC(F)(F)F)c1ccc2c(c1)N=C(c1ccc(Cl)s1)c1ccccc1S2 [drawing 1176]
94% | COCCNC(=O)c1ccc2c(c1)N=C(c1ccc(Cl)s1)c1ccccc1S2 [drawing 1218]
92% | O=C(NCCCC(F)(F)F)c1ccc2c(c1)N=C(c1ccc(Cl)cc1F)c1ccccc1S2 [drawing 1175]
84% | COc1cccc(C2=Nc3cc(C(=O)NCCCC(F)(F)F)ccc3Sc3ccccc32)n1 [drawing 1186]
86% | CC(C)CCNC(=O)c1ccc2c(c1)N=C(c1cccc(Cl)c1)c1ccccc1S2 [drawing 1185]
87% | O=C(NC1CCCCC1)c1ccc2c(c1)N=C(c1ccc(F)cc1)c1ccccc1S2 [drawing 1202]

Structure (SMILES) | Binding Human Inh %
O=C(NN1CCCCC1)c1ccc2c(c1)N=C(C1CCCCC1)c1ccccc1S2 [drawing 1216] | 65%
O=C(NN1CCCCC1)c1ccc2c(c1)N=C(c1ccc(F)cc1)c1ccccc1S2 [drawing 1207] | 87%
O=C(NN1CCCCCC1)c1ccc2c(c1)N=C(c1cccc(F)c1)c1ccccc1S2 [drawing 1215] | 103%

Same assay, conditions: human CB1, HEK-293 T membranes, read-out: Binding Human pKi (converted)

Ki | Structure (SMILES)
6.31 nM | CC(C)CNC(=O)c1ccc2c(c1)N=C(c1ccccn1)c1ccccc1S2 [drawing 1217]
0.251 nM | CCCCNC(=O)c1ccc2c(c1)N=C(c1ccc(Cl)cc1)c1ccc(F)cc1S2 [drawing 1184]
0.316 nM | CCCCNC(=O)c1ccc2c(c1)N=C(c1ccc(Cl)s1)c1ccccc1S2 [drawing 1191]
0.2 nM | O=C(NCc1cccs1)c1ccc2c(c1)N=C(c1ccc(F)cc1)c1ccccc1S2 [drawing 1178]
0.158 nM | CC(C)CNC(=O)c1ccc2c(c1)N=C(c1ccc(Cl)cc1)c1ccc(F)cc1S2 [drawing 1177]
1.58 nM | O=C(NN1CCCCCC1)c1ccc2c(c1)N=C(c1ccc(Cl)s1)c1ccccc1S2 [drawing 1208]
0.158 nM | O=C(NCCCC(F)(F)F)c1ccc2c(c1)N=C(c1ccc(Cl)s1)c1ccccc1S2 [drawing 1176]
20 nM | COCCNC(=O)c1ccc2c(c1)N=C(c1ccc(Cl)s1)c1ccccc1S2 [drawing 1218]
0.0794 nM | O=C(NCCCC(F)(F)F)c1ccc2c(c1)N=C(c1ccc(Cl)cc1F)c1ccccc1S2 [drawing 1175]
0.316 nM | COc1cccc(C2=Nc3cc(C(=O)NCCCC(F)(F)F)ccc3Sc3ccccc32)n1 [drawing 1186]
0.251 nM | CC(C)CCNC(=O)c1ccc2c(c1)N=C(c1cccc(Cl)c1)c1ccccc1S2 [drawing 1185]
1.26 nM | O=C(NC1CCCCC1)c1ccc2c(c1)N=C(c1ccc(F)cc1)c1ccccc1S2 [drawing 1202]

Structure (SMILES) | Ki
O=C(NN1CCCCC1)c1ccc2c(c1)N=C(C1CCCCC1)c1ccccc1S2 [drawing 1216] | 2 nM
O=C(NN1CCCCC1)c1ccc2c(c1)N=C(c1ccc(F)cc1)c1ccccc1S2 [drawing 1207] | 1.26 nM
O=C(NN1CCCCCC1)c1ccc2c(c1)N=C(c1cccc(F)c1)c1ccccc1S2 [drawing 1215] | 2 nM

Test system: not listed separately
Assay: Clearance study, liver microsomes (mice)
Details: mouse, pH 7.4

microsomal CLint at 1 μM | Structure (SMILES)
96 µL/min/mg | O=C(NCc1cccc(Cl)c1)c1ccc2c(c1)N=C(c1ccc(Cl)cc1)c1cc(F)ccc1S2 [drawing 1686]
176 µL/min/mg | O=C(NC1CCCCC1)c1ccc2c(c1)N=C(c1cccc(F)c1)c1ccccc1S2 [drawing 1757]
275 µL/min/mg | O=C(NCc1ccc(F)cc1)c1ccc2c(c1)N=C(C1CCCCC1)c1ccccc1S2 [drawing 1775]
78 µL/min/mg | O=C(NC1CCCCC1)c1ccc2c(c1)N=C(c1ccc(Cl)cc1)c1ccccc1S2 [drawing 1712]
92 µL/min/mg | O=C(NCc1cccnc1)c1ccc2c(c1)N=C(c1ccc(Cl)cc1)c1ccccc1S2 [drawing 1756]
97 µL/min/mg | O=C(NCc1ccco1)c1ccc2c(c1)N=C(c1ccc(Cl)cc1)c1ccccc1S2 [drawing 1803]
205 µL/min/mg | O=C(NCc1ccccc1)c1ccc2c(c1)N=C(c1cccc(Cl)c1)c1ccccc1S2 [drawing 1767]
124 µL/min/mg | O=C(NN1CCCCCC1)c1ccc2c(c1)N=C(c1cccc(Cl)c1)c1ccccc1S2 [drawing 1689]
448 µL/min/mg | Cc1ccsc1C1=Nc2cc(C(=O)NN3CCCCCC3)ccc2Sc2ccccc21 [drawing 1706]
348 µL/min/mg | CCCCNC(=O)c1ccc2c(c1)N=C(c1ccc(Br)cn1)c1ccccc1S2 [drawing 1654]
124 µL/min/mg | O=C(NCc1ccccc1Cl)c1ccc2c(c1)N=C(c1cccc(Cl)c1)c1ccccc1S2 [drawing 1674]

Target: native CB1 receptors (Rattus norvegicus, UniProt P20272)
Sequence (P20272 whole entry): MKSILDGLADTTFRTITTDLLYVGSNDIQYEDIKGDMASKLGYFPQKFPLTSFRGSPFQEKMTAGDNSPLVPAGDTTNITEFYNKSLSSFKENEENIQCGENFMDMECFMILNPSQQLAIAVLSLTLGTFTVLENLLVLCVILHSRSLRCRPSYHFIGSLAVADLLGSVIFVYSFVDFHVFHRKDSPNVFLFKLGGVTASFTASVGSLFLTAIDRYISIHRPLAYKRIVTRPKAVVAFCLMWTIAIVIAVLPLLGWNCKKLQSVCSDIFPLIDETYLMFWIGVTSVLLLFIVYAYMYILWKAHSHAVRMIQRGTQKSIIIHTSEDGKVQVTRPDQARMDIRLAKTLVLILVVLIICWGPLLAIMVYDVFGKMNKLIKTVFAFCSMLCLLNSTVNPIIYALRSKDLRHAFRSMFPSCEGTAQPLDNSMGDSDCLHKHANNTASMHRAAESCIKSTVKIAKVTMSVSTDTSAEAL
Assay: CB1 receptor rat binding assay ([3H]SR141716A, rat brain membranes)
Details: not given

Structure (SMILES) | Ki
O=C(NN1CCCCC1)c1ccc2c(c1)N=C(C1CCCCC1)c1ccccc1S2 [drawing 1216] | 5.01 nM

Same assay, conditions: rat brain membranes, [3H]SR141716A

Binding rat Inh % | Structure (SMILES)
79% | CC(C)CNC(=O)c1ccc2c(c1)N=C(c1ccccn1)c1ccccc1S2 [drawing 1217]
98% | CCCCNC(=O)c1ccc2c(c1)N=C(c1ccc(Cl)cc1)c1ccc(F)cc1S2 [drawing 1184]
101% | CCCCNC(=O)c1ccc2c(c1)N=C(c1ccc(Cl)s1)c1ccccc1S2 [drawing 1191]
97% | O=C(NCc1cccs1)c1ccc2c(c1)N=C(c1ccc(F)cc1)c1ccccc1S2 [drawing 1178]
89% | CC(C)CNC(=O)c1ccc2c(c1)N=C(c1ccc(Cl)cc1)c1ccc(F)cc1S2 [drawing 1177]
93% | O=C(NN1CCCCCC1)c1ccc2c(c1)N=C(c1ccc(Cl)s1)c1ccccc1S2 [drawing 1208]
91% | O=C(NCCCC(F)(F)F)c1ccc2c(c1)N=C(c1ccc(Cl)s1)c1ccccc1S2 [drawing 1176]
80% | COCCNC(=O)c1ccc2c(c1)N=C(c1ccc(Cl)s1)c1ccccc1S2 [drawing 1218]
87% | O=C(NCCCC(F)(F)F)c1ccc2c(c1)N=C(c1ccc(Cl)cc1F)c1ccccc1S2 [drawing 1175]
87% | COc1cccc(C2=Nc3cc(C(=O)NCCCC(F)(F)F)ccc3Sc3ccccc32)n1 [drawing 1186]
89% | CC(C)CCNC(=O)c1ccc2c(c1)N=C(c1cccc(Cl)c1)c1ccccc1S2 [drawing 1185]
84% | O=C(NC1CCCCC1)c1ccc2c(c1)N=C(c1ccc(F)cc1)c1ccccc1S2 [drawing 1202]

Structure (SMILES) | Binding rat Inh %
O=C(NN1CCCCC1)c1ccc2c(c1)N=C(C1CCCCC1)c1ccccc1S2 [drawing 1216] | 94%
O=C(NN1CCCCC1)c1ccc2c(c1)N=C(c1ccc(F)cc1)c1ccccc1S2 [drawing 1207] | 103%
O=C(NN1CCCCCC1)c1ccc2c(c1)N=C(c1cccc(F)c1)c1ccccc1S2 [drawing 1215] | 97%

Same assay, conditions: rat brain membranes, [3H]SR141716A; read-out: Binding rat pKi (converted)

Ki | Structure (SMILES)
158 nM | CC(C)CNC(=O)c1ccc2c(c1)N=C(c1ccccn1)c1ccccc1S2 [drawing 1217]
2.51 nM | CCCCNC(=O)c1ccc2c(c1)N=C(c1ccc(Cl)cc1)c1ccc(F)cc1S2 [drawing 1184]
2.51 nM | CCCCNC(=O)c1ccc2c(c1)N=C(c1ccc(Cl)s1)c1ccccc1S2 [drawing 1191]
1.58 nM | O=C(NCc1cccs1)c1ccc2c(c1)N=C(c1ccc(F)cc1)c1ccccc1S2 [drawing 1178]
3.98 nM | CC(C)CNC(=O)c1ccc2c(c1)N=C(c1ccc(Cl)cc1)c1ccc(F)cc1S2 [drawing 1177]
5.01 nM | O=C(NN1CCCCCC1)c1ccc2c(c1)N=C(c1ccc(Cl)s1)c1ccccc1S2 [drawing 1208]
0.501 nM | O=C(NCCCC(F)(F)F)c1ccc2c(c1)N=C(c1ccc(Cl)s1)c1ccccc1S2 [drawing 1176]
50.1 nM | COCCNC(=O)c1ccc2c(c1)N=C(c1ccc(Cl)s1)c1ccccc1S2 [drawing 1218]
0.501 nM | O=C(NCCCC(F)(F)F)c1ccc2c(c1)N=C(c1ccc(Cl)cc1F)c1ccccc1S2 [drawing 1175]
10 nM | COc1cccc(C2=Nc3cc(C(=O)NCCCC(F)(F)F)ccc3Sc3ccccc32)n1 [drawing 1186]
1 nM | CC(C)CCNC(=O)c1ccc2c(c1)N=C(c1cccc(Cl)c1)c1ccccc1S2 [drawing 1185]
3.16 nM | O=C(NC1CCCCC1)c1ccc2c(c1)N=C(c1ccc(F)cc1)c1ccccc1S2 [drawing 1202]

Structure (SMILES) | Ki
O=C(NN1CCCCC1)c1ccc2c(c1)N=C(c1ccc(F)cc1)c1ccccc1S2 [drawing 1207] | 10 nM
O=C(NN1CCCCCC1)c1ccc2c(c1)N=C(c1cccc(F)c1)c1ccccc1S2 [drawing 1215] | 6.31 nM

Test system: not listed separately
Assay: Clearance study, liver microsomes (human)
Details: pH 7.4

microsomal CLint at 1 μM | Structure (SMILES)
3 µL/min/mg | O=C(NCc1cccc(Cl)c1)c1ccc2c(c1)N=C(c1ccc(Cl)cc1)c1cc(F)ccc1S2 [drawing 1686]
29 µL/min/mg | O=C(NC1CCCCC1)c1ccc2c(c1)N=C(c1cccc(F)c1)c1ccccc1S2 [drawing 1757]
58 µL/min/mg | O=C(NCc1ccc(F)cc1)c1ccc2c(c1)N=C(C1CCCCC1)c1ccccc1S2 [drawing 1775]
8 µL/min/mg | O=C(NC1CCCCC1)c1ccc2c(c1)N=C(c1ccc(Cl)cc1)c1ccccc1S2 [drawing 1712]
41 µL/min/mg | O=C(NCc1cccnc1)c1ccc2c(c1)N=C(c1ccc(Cl)cc1)c1ccccc1S2 [drawing 1756]
29 µL/min/mg | O=C(NCc1ccco1)c1ccc2c(c1)N=C(c1ccc(Cl)cc1)c1ccccc1S2 [drawing 1803]
23 µL/min/mg | O=C(NCc1ccccc1)c1ccc2c(c1)N=C(c1cccc(Cl)c1)c1ccccc1S2 [drawing 1767]
59 µL/min/mg | O=C(NN1CCCCCC1)c1ccc2c(c1)N=C(c1cccc(Cl)c1)c1ccccc1S2 [drawing 1689]
118 µL/min/mg | Cc1ccsc1C1=Nc2cc(C(=O)NN3CCCCCC3)ccc2Sc2ccccc21 [drawing 1706]
63 µL/min/mg | CCCCNC(=O)c1ccc2c(c1)N=C(c1ccc(Br)cn1)c1ccccc1S2 [drawing 1654]
28 µL/min/mg | O=C(NCc1ccccc1Cl)c1ccc2c(c1)N=C(c1cccc(Cl)c1)c1ccccc1S2 [drawing 1674]
